Experimental data taken from paper PMC10384010, “Chromatographic Data in Statistical Analysis of BBB Permeability Indices” (Membranes, 2023).
Where two headings read alike, the source gives them in different places.

Columns and labels:
[1] = Normal-phase TLC on silica gel 60 F254 (Rf); format: physicochemical; conditions: water:methanol:acetonitrile 60:20:20, ammonium acetate pH 7.4
Description: (§1) The purity of the isolated substances was checked by TLC chromatography and densitometric scanning.
(§2) APIs were subjected to chromatographic in column (HPLC) and thin layer (TLC) formats. TLC chromatography was carried out on 20 cm × 20 cm glass plates by Merck, covered with silica gel and the addition of a fluorescent indicator. Merck TLC silica gel 60 F254 was used for the normal phase (NP). In the reverse phase (RP), RP-2 silanized plates were used (Merck TLC Silica gel 60 RP-2 F254, silanized). The mobile phase was buffered with ammonium acetate to pH 7.4 (LACH-NER, ammonium acetate).
(§3) Plates, after developing the chromatograms, were scanned using a densitometer (Desaga CD 60) with an analytical wavelength selected individually for drugs. The values of Rf (molecular descriptors: NP, RP) were determined.

[2] = cited from earlier work
[3] = Reversed-phase TLC on RP-2 silanized plates (Rf); format: physicochemical; conditions: silica gel 60 RP-2 F254 silanized; water:methanol:acetonitrile 60:20:20, ammonium acetate pH 7.4
Description: as §1, §2, §3

[4] = HPLC on IAM (immobilized artificial membrane) column, retention factor; format: physicochemical; conditions: IAM.PC.DD.2 column; for k(IAM) retention factor: 10 mM phosphate buffer pH 7.4:acetonitrile 80:20; for logkIAM: logarithm of retention factor, phosphate buffer pH 7.4:acetonitrile 80:20
Description: Chromatographic data also came from an experiment with a HPLC IAM (immobilized artificial membrane) column (Regis Technologies Inc.: IAM.PC.DD.2, 10 µm; 4.6 mm × 10 mm). The column contains a standard membrane consisting of a phospholipid bilayer. Organic solvents (acetonitrile and methanol) and water (J.T. Baker HPLC) were used in HPLC. Sigma phosphate buffered saline tablets were used to prepare the phosphate buffer. The mobile phase was a mixture of 10 mM phosphate buffer at pH 7.4 and acetonitrile in the ratio of 80:20 (v/v) [35]. The mobile phase flow was set at 0.5 mL/min; detection was carried out with a UV–Vis detector. The obtained values of the retention factor (k IAM) were transformed into a logarithmic form and entered into the statistical analysis (descriptor: log k IAM).

[5] = entering the CNS / not entering the CNS; ref Drugbank [36]; cited from earlier work
[6] = plasma protein binding, given as fraction, ref Drugbank

Row | Compound | NP (Rf from NP TLC plate) [1] | PB (protein binding) [2, 6] | RP (Rf from RP-2 TLC plate) [3] | k(IAM) retention factor [4] | logkIAM [4] | PB (protein binding) ([2]; plasma) | CNS+/- [5]
1 | CCN(CC)C(=O)Nc1ccc(OCC(O)CNC(C)(C)C)c(C(C)=O)c1 (stereo not shown) [celiprolol] | 0.45 | 0.275 | 0.75 | 5.87 | 0.77 |  | 
2 | CCN(Cc1ccncc1)C(=O)C(CO)c1ccccc1 (stereo not shown) [tropicamid] | 0.85 |  | 0.83 | 1.06 | 0.03 | 0.45 | 
3 | CC(=O)S[C@@H]1CC2=CC(=O)CC[C@]2(C)[C@H]2CC[C@@]3(C)[C@@H](CC[C@@]34CCC(=O)O4)[C@H]12 [spironolactone] | 0.98 | 0.9 | 0.78 | 13.38 | 1.13 |  | 
4 | CN(C)CCOC(c1ccccc1)c1ccccc1 [diphenhydramin] | 0.42 |  | 0.58 | 3.66 | 0.56 | 0.985 | 
5 | CN1CCN=C(c2ccccc2)c2cc(Cl)ccc21 [medazepam] | 0.91 | 0.99 | 0.66 | 34.65 | 1.54 |  | 
6 | OC(CCN1CCCCC1)(c1ccccc1)C1CC2C=CC1C2 (stereo not shown) [biperiden] | 0.68 | 0.6 | 0.87 | 41.47 | 1.62 |  | 
7 | CCCCCOC(=O)Nc1nc(=O)n([C@@H]2O[C@H](C)[C@@H](O)[C@H]2O)cc1F [capecitabine] | 0.92 |  | 0.9 | 1.11 | 0.04 |  | 1
8 | O=C(O)C1N=C(c2ccccc2)c2cc(Cl)ccc2NC1=O (stereo not shown) [clorazepate] | 0.94 | 0.975 | 0.81 | 4.88 | 0.69 |  | 
9 | CC(=O)[C@H]1CC[C@H]2[C@@H]3CCC4=CC(=O)CC[C@]4(C)[C@H]3CC[C@]12C [progesterone] | 0.96 | 0.975 | 0.71 | 34.99 | 1.54 |  | 
10 | CC[C@H]1OC(=O)[C@H](C)[C@@H](O[C@H]2C[C@@](C)(OC)[C@@H](O)[C@H](C)O2)[C@H](C)[C@@H](O[C@@H]2O[C@H](C)C[C@H](N(C)C)[C@H]2O)[C@](C)(OC)C[C@@H](C)C(=O)[C@H](C)[C@@H](O)[C@]1(C)O [clarithromycin] | 0.99 |  | 0.83 | 0.10 | -1.02 |  | 0
11 | O[C@@H]1CO[C@H]2[C@@H]1OC[C@@H]2O [isosorbide] | 0.26 |  | 0.54 | 0.21 | -0.68 |  | 1
12 | CC(C)C[C@H]1C(=O)N2CCC[C@H]2[C@]2(O)O[C@](NC(=O)[C@@H]3C=C4c5cccc6[nH]c(Br)c(c56)C[C@H]4N(C)C3)(C(C)C)C(=O)N12 [bromocriptine] | 0.95 | 0.93 | 0.69 | 12.69 | 1.10 |  | 
13 | CN(C)CCc1c[nH]c2ccc(C[C@H]3COC(=O)N3)cc12 [zolmitriptane] | 0.31 |  | 0.86 | 3.30 | 0.52 | 0.25 | 
14 | CCOc1ccc(/C=C2\NCCc3cc(OCC)c(OCC)cc32)cc1OCC [drotaverine] | 0.61 |  | 0.55 | 31.24 | 1.49 |  | 1
15 | CC[C@H]1OC(=O)[C@H](C)[C@@H](O[C@H]2C[C@@](C)(OC)[C@@H](O)[C@H](C)O2)[C@H](C)[C@@H](O[C@@H]2O[C@H](C)C[C@H](N(C)C)[C@H]2O)[C@](C)(O)C[C@@H](C)/C(=N\OCOCCOC)[C@H](C)[C@@H](O)[C@]1(C)O [roxitromicin] | 0.91 |  | 0.8 |  |  | 0.96 | 
16 | C[C@H]1COc2c(N3CCN(C)CC3)c(F)cc3c(=O)c(C(=O)O)cn1c23 [levofloxacin] | 0.17 | 0.31 | 0.27 | 0.90 | -0.04 |  | 
17 | OC(CNCC(O)C1CCc2cc(F)ccc2O1)C1CCc2cc(F)ccc2O1 (stereo not shown) [nebivolol] | 0.75 |  | 0.4 |  |  |  | 1
18 | CNC(=C[N+](=O)[O-])NCCSCc1ccc(CN(C)C)o1 [ranitidine] | 0.24 |  | 0.81 | 0.67 | -0.17 |  | 0
19 | CN(C)C(=N)N=C(N)N [metformin] | 0.21 |  | 0.78 | 0.34 | -0.47 |  | 1

Row | Compound | NP (Rf from NP TLC plate) [1] | PB (protein binding) [2, 6] | RP (Rf from RP-2 TLC plate) [3] | k(IAM) retention factor [4] | logkIAM [4] | PB (protein binding) ([2]; plasma) | CNS+/- [5]
20 | C[C@]12CC[C@@H]3c4ccc(O)cc4CC[C@H]3[C@@H]1CCC2=O [estrone] | 0.99 | 0.95 | 0.79 | 29.40 | 1.47 |  | 
21 | C=CCN1C[C@H](C(=O)N(CCCN(C)C)C(=O)NCC)C[C@@H]2c3cccc4[nH]cc(c34)C[C@H]21 [carbegoline] | 0.68 |  | 0.68 | 17.05 | 1.23 | 0.41 | 
22 | C[C@]12CC[C@@H]3c4ccc(OC(=O)c5ccccc5)cc4CC[C@H]3[C@@H]1CC[C@@H]2O [estradiol benzoate] | 0.97 | 0.95 | 0.63 | 6.92 | 0.84 |  | 
23 | CNCCc1ccccn1 [betahistine] | 0.17 |  | 0.31 | 0.90 | -0.05 |  | 1
24 | CN1CCC[C@@H]1Cc1c[nH]c2ccc(CCS(=O)(=O)c3ccccc3)cc12 [eletriptan] |  |  |  |  |  |  | 1
25 | CC[C@@H](CO)NCCN[C@@H](CC)CO [ethambutol] | 0.19 |  | 0.97 |  |  |  | 0
26 | CCOCCn1c(C2CCN(CCc3ccc(C(C)(C)C(=O)O)cc3)CC2)nc2ccccc21 [bilastine] | 0.46 | 0.87 | 0.76 | 0.55 | -0.26 |  | 
27 | CN[C@H]1CC[C@@H](c2ccc(Cl)c(Cl)c2)c2ccccc21 [sertraline] | 0.53 | 0.98 | 0.49 | 42.89 | 1.63 |  | 
28 | COc1cc(Cc2cnc(N)nc2N)cc(OC)c1OC [trimethoprim] | 0.57 |  |  |  |  |  | 1
29 | CCCc1nc2c(C)cc(-c3nc4ccccc4n3C)cc2n1Cc1ccc(-c2ccccc2C(=O)O)cc1 [telmisartan] | 0.9 |  | 0.87 | 4.68 | 0.67 |  | 1
30 | CN1CCN(C(=O)OC2c3nccnc3C(=O)N2c2ccc(Cl)cn2)CC1 (stereo not shown) [zopiclone] | 0.96 | 0.45 | 0.84 | 0.91 | -0.04 |  | 
31 | CCN1CCCC1CNC(=O)c1cc(S(N)(=O)=O)ccc1OC (stereo not shown) [sulpiride] | 0.27 | 0.4 | 0.85 | 1.66 | 0.22 |  | 
32 | COCCc1ccc(OCC(O)CNC(C)C)cc1 (stereo not shown) [metoprolol] | 0.48 |  | 0.28 | 4.32 | 0.64 |  | 0
33 | CC(C)NCC(O)COc1ccc(CCOCC2CC2)cc1 (stereo not shown) [betaxolol] | 0.66 | 0.5 | 0.27 |  |  |  | 
34 | CC(=O)CC(c1ccc([N+](=O)[O-])cc1)c1c(O)c2ccccc2oc1=O (stereo not shown) [acenocumarol] | 0.99 |  |  | 0.53 | -0.27 |  | 1
35 | C[C@]12C=CC(=O)C=C1CC[C@@H]1[C@@H]2[C@@H](O)C[C@@]2(C)[C@H]1CC[C@]2(O)C(=O)CO [prednizolone] | 0.94 |  | 0.87 | 2.84 | 0.45 | 0.9 | 
36 | CC1(C)S[C@@H]2[C@H](NC(=O)[C@H](N)c3ccc(O)cc3)C(=O)N2[C@H]1C(=O)O [amoxilcillin] | 0.68 |  | 0.99 | 0.05 | -1.32 | 0.2 | 
37 | Cc1cncc(CN2CCC(=C3c4ccc(Cl)cc4CCc4cccnc43)CC2)c1 [rupatadine] | 0.42 | 0.985 | 0.55 | 9.29 | 0.97 |  | 
